Experimental data taken from the supplement of paper PMC10307832.

What was measured:
Assay in all cases: relative viability (nuclei count vs DMSO), 5 days (fraction); higher = more cells survive
Vandetanib + Pemetrexed = compound: COc1cc2/c(=N/c3ccc(Br)cc3F)nc[nH]c2cc1OCC1CCN(C)CC1 [Vandetanib] + Nc1nc2[nH]cc(CCc3ccc(C(=O)N[C@@H](CCC(=O)O)C(=O)O)cc3)c2c(=O)[nH]1 [Pemetrexed] (partner 0.2 µM)
Procedure, shortened: (§1)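 The day after seeding in 1536-well plates, lung cancer cell lines were treated by pin tool with a single drug, or with a fixed anchor-drug dose together with five library-drug doses (not always all listed) in √10 steps. After 5 days, a combined fix-and-stain solution (final 0.05% Triton X-100, 1% formaldehyde, 1 ug/ml Hoechst) was added. Nuclei counted on 4× images gave relative viability as treated counts over vehicle counts, reported as the median of duplicate plates.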

CUDC-101 + Dasatinib = compound: C#Cc1cccc(Nc2ncnc3cc(OC)c(OCCCCCCC(=O)NO)cc23)c1 [CUDC-101] + Cc1nc(Nc2ncc(C(=O)Nc3c(C)cccc3Cl)s2)cc(N2CCN(CCO)CC2)n1 [Dasatinib] (partner 0.075 µM)
Procedure, shortened: as §1

[1] = compound: C1=CC=C2C(=C1)N=C(S2)C(C#N)C3=NC(=NC=C3)NCCC4=CN=CC=C4 + NC(=O)Nc1cc(-c2cccc(F)c2)sc1C(=O)N[C@H]1CCCNC1 [AZD7762] (partner 0.2 µM)
Procedure, shortened: as §1

[2] = compound: C1=CC=C2C(=C1)N=C(S2)C(C#N)C3=NC(=NC=C3)NCCC4=CN=CC=C4 + CC1(C)CCC(c2ccc(Cl)cc2)=C(CN2CCN(c3ccc(C(=O)NS(=O)(=O)c4ccc(N[C@H](CCN5CCOCC5)CSc5ccccc5)c(S(=O)(=O)C(F)(F)F)c4)cc3)CC2)C1 [Navitoclax] (partner 0.5 µM)
Procedure, shortened: as §1

NCI-H2085
relative viability (Vandetanib + Pemetrexed; first compound 0.02 µM): 1.02 | relative viability (Vandetanib + Pemetrexed; first compound 0.06325 µM): 0.786 | relative viability (Vandetanib + Pemetrexed; first compound 0.2 µM): 0.776 | relative viability (Vandetanib + Pemetrexed; first compound 0.6325 µM): 0.765 | relative viability (Vandetanib + Pemetrexed; first compound 2 µM): 0.767 | relative viability (CUDC-101 + Dasatinib; first compound 0.01 µM): 0.205 | relative viability (CUDC-101 + Dasatinib; first compound 0.03162 µM): 0.274 | relative viability (CUDC-101 + Dasatinib; first compound 0.1 µM): 0.221 | relative viability (CUDC-101 + Dasatinib; first compound 0.3162 µM): 0.196 | relative viability (CUDC-101 + Dasatinib; first compound 1 µM): 0.215 | relative viability ([1]; first compound 0.005 µM): 0.833 | relative viability ([1]; first compound 0.01581 µM): 0.956 | relative viability ([1]; first compound 0.05 µM): 1.02 | relative viability ([1]; first compound 0.1581 µM): 1.07 | relative viability ([1]; first compound 0.5 µM): 0.905 | relative viability ([2]; first compound 0.005 µM): 0.946 | relative viability ([2]; first compound 0.01581 µM): 1.09 | relative viability ([2]; first compound 0.05 µM): 1.09 | relative viability ([2]; first compound 0.1581 µM): 1.15 | relative viability ([2]; first compound 0.5 µM): 0.981

HARA
relative viability (Vandetanib + Pemetrexed; first compound 0.02 µM): 0.246 | relative viability (Vandetanib + Pemetrexed; first compound 0.06325 µM): 0.239 | relative viability (Vandetanib + Pemetrexed; first compound 0.2 µM): 0.243 | relative viability (Vandetanib + Pemetrexed; first compound 0.6325 µM): 0.203 | relative viability (Vandetanib + Pemetrexed; first compound 2 µM): 0.213 | relative viability (CUDC-101 + Dasatinib; first compound 0.01 µM): 0.246 | relative viability (CUDC-101 + Dasatinib; first compound 0.03162 µM): 0.311 | relative viability (CUDC-101 + Dasatinib; first compound 0.1 µM): 0.271 | relative viability (CUDC-101 + Dasatinib; first compound 0.3162 µM): 0.282 | relative viability (CUDC-101 + Dasatinib; first compound 1 µM): 0.229 | relative viability ([1]; first compound 0.005 µM): 0.2 | relative viability ([1]; first compound 0.01581 µM): 0.358 | relative viability ([1]; first compound 0.05 µM): 0.38 | relative viability ([1]; first compound 0.1581 µM): 0.275 | relative viability ([1]; first compound 0.5 µM): 0.356 | relative viability ([2]; first compound 0.005 µM): 1.09 | relative viability ([2]; first compound 0.01581 µM): 1.16 | relative viability ([2]; first compound 0.05 µM): 1.14 | relative viability ([2]; first compound 0.1581 µM): 1.22 | relative viability ([2]; first compound 0.5 µM): 1.21

201T
relative viability (Vandetanib + Pemetrexed; first compound 0.02 µM): 0.345 | relative viability (Vandetanib + Pemetrexed; first compound 0.06325 µM): 0.34 | relative viability (Vandetanib + Pemetrexed; first compound 0.2 µM): 0.328 | relative viability (Vandetanib + Pemetrexed; first compound 0.6325 µM): 0.338 | relative viability (Vandetanib + Pemetrexed; first compound 2 µM): 0.306 | relative viability (CUDC-101 + Dasatinib; first compound 0.01 µM): 0.578 | relative viability (CUDC-101 + Dasatinib; first compound 0.03162 µM): 0.563 | relative viability (CUDC-101 + Dasatinib; first compound 0.1 µM): 0.579 | relative viability (CUDC-101 + Dasatinib; first compound 0.3162 µM): 0.591 | relative viability (CUDC-101 + Dasatinib; first compound 1 µM): 0.511 | relative viability ([1]; first compound 0.005 µM): 0.542 | relative viability ([1]; first compound 0.01581 µM): 0.674 | relative viability ([1]; first compound 0.05 µM): 0.69 | relative viability ([1]; first compound 0.1581 µM): 0.707 | relative viability ([1]; first compound 0.5 µM): 0.56 | relative viability ([2]; first compound 0.005 µM): 1.14 | relative viability ([2]; first compound 0.01581 µM): 1.22 | relative viability ([2]; first compound 0.05 µM): 1.14 | relative viability ([2]; first compound 0.1581 µM): 1.24 | relative viability ([2]; first compound 0.5 µM): 1.2

EMC-BAC-2
relative viability (Vandetanib + Pemetrexed; first compound 0.02 µM): 0.473 | relative viability (Vandetanib + Pemetrexed; first compound 0.06325 µM): 0.44 | relative viability (Vandetanib + Pemetrexed; first compound 0.2 µM): 0.448 | relative viability (Vandetanib + Pemetrexed; first compound 0.6325 µM): 0.427 | relative viability (Vandetanib + Pemetrexed; first compound 2 µM): 0.459 | relative viability (CUDC-101 + Dasatinib; first compound 0.01 µM): 0.359 | relative viability (CUDC-101 + Dasatinib; first compound 0.03162 µM): 0.324 | relative viability (CUDC-101 + Dasatinib; first compound 0.1 µM): 0.35 | relative viability (CUDC-101 + Dasatinib; first compound 0.3162 µM): 0.262 | relative viability (CUDC-101 + Dasatinib; first compound 1 µM): 0.149 | relative viability ([1]; first compound 0.005 µM): 1.13 | relative viability ([1]; first compound 0.01581 µM): 1.04 | relative viability ([1]; first compound 0.05 µM): 0.945 | relative viability ([1]; first compound 0.1581 µM): 1.22 | relative viability ([1]; first compound 0.5 µM): 0.875 | relative viability ([2]; first compound 0.005 µM): 0.823 | relative viability ([2]; first compound 0.01581 µM): 1.19 | relative viability ([2]; first compound 0.05 µM): 1.14 | relative viability ([2]; first compound 0.1581 µM): 1.2 | relative viability ([2]; first compound 0.5 µM): 1.01

NCI-H441
relative viability (Vandetanib + Pemetrexed; first compound 0.02 µM): 0.252 | relative viability (Vandetanib + Pemetrexed; first compound 0.06325 µM): 0.269 | relative viability (Vandetanib + Pemetrexed; first compound 0.2 µM): 0.27 | relative viability (Vandetanib + Pemetrexed; first compound 0.6325 µM): 0.263 | relative viability (Vandetanib + Pemetrexed; first compound 2 µM): 0.263 | relative viability (CUDC-101 + Dasatinib; first compound 0.01 µM): 0.691 | relative viability (CUDC-101 + Dasatinib; first compound 0.03162 µM): 0.523 | relative viability (CUDC-101 + Dasatinib; first compound 0.1 µM): 0.683 | relative viability (CUDC-101 + Dasatinib; first compound 0.3162 µM): 0.646 | relative viability (CUDC-101 + Dasatinib; first compound 1 µM): 0.678 | relative viability ([1]; first compound 0.005 µM): 1.02 | relative viability ([1]; first compound 0.01581 µM): 1.14 | relative viability ([1]; first compound 0.05 µM): 1.28 | relative viability ([1]; first compound 0.1581 µM): 1.02 | relative viability ([1]; first compound 0.5 µM): 0.986 | relative viability ([2]; first compound 0.01581 µM): 0.625 | relative viability ([2]; first compound 0.05 µM): 0.513 | relative viability ([2]; first compound 0.1581 µM): 0.575 | relative viability ([2]; first compound 0.5 µM): 0.48

NCI-H1944
relative viability (Vandetanib + Pemetrexed; first compound 0.02 µM): 0.615 | relative viability (Vandetanib + Pemetrexed; first compound 0.06325 µM): 0.566 | relative viability (Vandetanib + Pemetrexed; first compound 0.2 µM): 0.682 | relative viability (Vandetanib + Pemetrexed; first compound 0.6325 µM): 0.564 | relative viability (Vandetanib + Pemetrexed; first compound 2 µM): 0.58 | relative viability (CUDC-101 + Dasatinib; first compound 0.01 µM): 0.215 | relative viability (CUDC-101 + Dasatinib; first compound 0.03162 µM): 0.184 | relative viability (CUDC-101 + Dasatinib; first compound 0.1 µM): 0.201 | relative viability (CUDC-101 + Dasatinib; first compound 0.3162 µM): 0.196 | relative viability (CUDC-101 + Dasatinib; first compound 1 µM): 0.196 | relative viability ([1]; first compound 0.005 µM): 0.541 | relative viability ([1]; first compound 0.01581 µM): 0.557 | relative viability ([1]; first compound 0.05 µM): 0.603 | relative viability ([1]; first compound 0.1581 µM): 0.466 | relative viability ([1]; first compound 0.5 µM): 0.456 | relative viability ([2]; first compound 0.005 µM): 1.05 | relative viability ([2]; first compound 0.01581 µM): 1.06 | relative viability ([2]; first compound 0.05 µM): 0.983 | relative viability ([2]; first compound 0.1581 µM): 1.06 | relative viability ([2]; first compound 0.5 µM): 1.04

NCI-H1993
relative viability (Vandetanib + Pemetrexed; first compound 0.02 µM): 0.629 | relative viability (Vandetanib + Pemetrexed; first compound 0.06325 µM): 0.55 | relative viability (Vandetanib + Pemetrexed; first compound 0.2 µM): 0.707 | relative viability (Vandetanib + Pemetrexed; first compound 0.6325 µM): 0.515 | relative viability (Vandetanib + Pemetrexed; first compound 2 µM): 0.598 | relative viability (CUDC-101 + Dasatinib; first compound 0.01 µM): 0.594 | relative viability (CUDC-101 + Dasatinib; first compound 0.03162 µM): 0.666 | relative viability (CUDC-101 + Dasatinib; first compound 0.1 µM): 0.686 | relative viability (CUDC-101 + Dasatinib; first compound 0.3162 µM): 0.571 | relative viability (CUDC-101 + Dasatinib; first compound 1 µM): 0.541 | relative viability ([1]; first compound 0.005 µM): 0.664 | relative viability ([1]; first compound 0.01581 µM): 0.749 | relative viability ([1]; first compound 0.05 µM): 1.03 | relative viability ([1]; first compound 0.1581 µM): 1.01 | relative viability ([1]; first compound 0.5 µM): 0.7 | relative viability ([2]; first compound 0.005 µM): 0.911 | relative viability ([2]; first compound 0.01581 µM): 0.802 | relative viability ([2]; first compound 0.05 µM): 0.896 | relative viability ([2]; first compound 0.1581 µM): 0.929 | relative viability ([2]; first compound 0.5 µM): 0.81

ChaGo-K-1
relative viability (Vandetanib + Pemetrexed; first compound 0.02 µM): 0.257 | relative viability (Vandetanib + Pemetrexed; first compound 0.06325 µM): 0.271 | relative viability (Vandetanib + Pemetrexed; first compound 0.2 µM): 0.259 | relative viability (Vandetanib + Pemetrexed; first compound 0.6325 µM): 0.255 | relative viability (Vandetanib + Pemetrexed; first compound 2 µM): 0.263 | relative viability (CUDC-101 + Dasatinib; first compound 0.01 µM): 0.571 | relative viability (CUDC-101 + Dasatinib; first compound 0.03162 µM): 0.612 | relative viability (CUDC-101 + Dasatinib; first compound 0.1 µM): 0.526 | relative viability (CUDC-101 + Dasatinib; first compound 0.3162 µM): 0.539 | relative viability (CUDC-101 + Dasatinib; first compound 1 µM): 0.529 | relative viability ([1]; first compound 0.005 µM): 0.781 | relative viability ([1]; first compound 0.01581 µM): 0.886 | relative viability ([1]; first compound 0.05 µM): 0.911 | relative viability ([1]; first compound 0.1581 µM): 0.884 | relative viability ([1]; first compound 0.5 µM): 0.764 | relative viability ([2]; first compound 0.005 µM): 0.955 | relative viability ([2]; first compound 0.05 µM): 0.838 | relative viability ([2]; first compound 0.1581 µM): 1.21 | relative viability ([2]; first compound 0.5 µM): 0.954
